Positions count from the first letter of the chain named. Where a SMILES comes first, the peptide text is derived from it.
What was measured:
[1] = target: T1, hTAS1R2 + hTAS1R3 Q637E^3.29 (Homo sapiens, UniProt Q7RTX0+Q8TE23, Q637E); assay: Calcium response (FLIPR), hTAS1R3 mutant coexpressed with hTAS1R2; assay type: cell-based; settings: variant Q637E^3.29; for Emax: read-out: maximal signal (% of wt)
T1 construct: expressed in transfected cells; host or cells: HEK293T cells stably expressing G16Gust44
T1 sequence (Q8TE23 20-839): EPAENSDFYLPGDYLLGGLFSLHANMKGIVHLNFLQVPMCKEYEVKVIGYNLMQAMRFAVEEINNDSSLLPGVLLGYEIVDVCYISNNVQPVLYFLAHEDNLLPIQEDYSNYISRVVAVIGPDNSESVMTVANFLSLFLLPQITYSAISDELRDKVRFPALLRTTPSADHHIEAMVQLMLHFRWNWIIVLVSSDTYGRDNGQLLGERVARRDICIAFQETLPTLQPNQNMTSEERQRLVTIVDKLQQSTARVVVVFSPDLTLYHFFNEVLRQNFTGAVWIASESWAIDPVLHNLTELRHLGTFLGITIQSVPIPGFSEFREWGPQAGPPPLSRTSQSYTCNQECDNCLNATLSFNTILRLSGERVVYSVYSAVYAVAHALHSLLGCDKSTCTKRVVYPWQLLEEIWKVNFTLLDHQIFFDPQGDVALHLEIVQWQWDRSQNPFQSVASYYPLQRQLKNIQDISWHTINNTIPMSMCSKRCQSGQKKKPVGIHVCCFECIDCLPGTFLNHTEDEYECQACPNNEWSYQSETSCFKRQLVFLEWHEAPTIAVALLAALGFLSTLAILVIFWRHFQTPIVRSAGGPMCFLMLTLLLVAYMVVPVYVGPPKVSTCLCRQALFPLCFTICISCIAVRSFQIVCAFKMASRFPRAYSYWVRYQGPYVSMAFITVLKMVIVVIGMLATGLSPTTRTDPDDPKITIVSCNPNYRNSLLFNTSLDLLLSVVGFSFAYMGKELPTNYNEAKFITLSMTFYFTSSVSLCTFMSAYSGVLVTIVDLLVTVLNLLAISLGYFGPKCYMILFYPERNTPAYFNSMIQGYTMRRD
T1 sequence (Q7RTX0 21-852 Q637E): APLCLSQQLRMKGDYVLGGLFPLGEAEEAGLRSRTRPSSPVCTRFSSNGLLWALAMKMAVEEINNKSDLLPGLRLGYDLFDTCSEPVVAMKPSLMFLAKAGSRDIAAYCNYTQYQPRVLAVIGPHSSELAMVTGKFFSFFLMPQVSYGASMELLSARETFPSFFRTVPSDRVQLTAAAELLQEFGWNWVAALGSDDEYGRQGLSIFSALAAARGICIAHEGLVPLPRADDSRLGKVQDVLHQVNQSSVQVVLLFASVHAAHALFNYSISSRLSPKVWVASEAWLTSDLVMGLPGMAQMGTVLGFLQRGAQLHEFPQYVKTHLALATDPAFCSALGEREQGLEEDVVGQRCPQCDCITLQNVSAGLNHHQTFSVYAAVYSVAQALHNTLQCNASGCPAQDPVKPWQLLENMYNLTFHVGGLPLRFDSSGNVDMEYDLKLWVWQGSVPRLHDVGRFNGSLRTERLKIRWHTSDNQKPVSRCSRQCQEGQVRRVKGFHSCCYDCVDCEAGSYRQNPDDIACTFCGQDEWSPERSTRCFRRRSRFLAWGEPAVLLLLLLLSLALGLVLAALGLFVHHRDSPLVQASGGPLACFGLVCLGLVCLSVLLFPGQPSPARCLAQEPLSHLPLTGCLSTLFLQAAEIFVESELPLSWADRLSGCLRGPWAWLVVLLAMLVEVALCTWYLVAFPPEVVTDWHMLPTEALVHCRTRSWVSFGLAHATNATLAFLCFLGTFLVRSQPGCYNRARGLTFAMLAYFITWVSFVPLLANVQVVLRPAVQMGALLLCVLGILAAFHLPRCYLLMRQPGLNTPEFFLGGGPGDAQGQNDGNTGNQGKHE
Outline: (§1)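 Read-out: FLIPR calcium signal as ΔF/F = (F-F0)/F0, corrected for mock-transfected cells. Cells were HEK293T stably carrying G16Gust44, transiently transfected with HSV-tagged receptor cDNAs and dye-loaded with Fluo4-AM 24 h post transfection.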

[2] = target: T2, hTAS1R2 + hTAS1R3 R723A^5.36 (Homo sapiens, UniProt Q7RTX0+Q8TE23, R723A); assay: as above; assay type: cell-based; settings: variant R723A^5.36; for Emax: read-out: maximal signal (% of wt)
T2 construct: expressed in transfected cells; host or cells: HEK293T cells stably expressing G16Gust44
T2 sequence (Q8TE23 20-839): T1 sequence (Q8TE23 20-839)
T2 sequence (Q7RTX0 21-852 R723A): T1 sequence (Q7RTX0 21-852 Q637E) with E617Q, R703A
Outline: as §1

EC50 [1]	Emax [1]	EC50 [2]	Emax [2]	SMILES
1.5 ± 0.4 mM	51 ± 13%	200 ± 100 µM	69 ± 71%	COc1ccc(CCC(=O)c2c(O)cc(O[C@@H]3O[C@H](CO)[C@@H](O)[C@H](O)[C@H]3O[C@@H]3O[C@@H](C)[C@H](O)[C@@H](O)[C@H]3O)cc2O)cc1O [NHDC, neohesperidin dihydrochalcone]
1.7 ± 0.2 mM	51 ± 10%	1500 ± 500 µM	68 ± 50%	COC(=O)[C@H](Cc1ccccc1)NC(=O)[C@@H](N)CC(=O)O [aspartame] (HELM PEPTIDE1{D.F.[CO[*:1]]}$$$$V2.0)
